According to patent US6905841B2, “Enzymatic substrates for detecting Pseudomonas aeruginas” (Biomerieux S.A., priority 1999, dated 2005):
Read-outs that look alike come from different tables or passages of the source.

What was measured:
β-alanine aminopeptidase [1] = experiment: Vitek 2 cards, broth with β-Alanyl p-nitroanilide; type: cell-based; settings: Myroïdes spp.; 1 strain tested; read after 19 hours
β-alanine aminopeptidase [2] = experiment: Vitek 2 cards, broth with β-Alanyl p-nitroanilide; settings: Citrobacter amalonaticus; 2 strains tested; read after 19 hours
β-alanine aminopeptidase [3] = experiment: Vitek 2 cards, broth with β-Alanyl p-nitroanilide; settings: Citrobacter freundii; 2 strains tested; read after 19 hours
β-alanine aminopeptidase [4] = experiment: Vitek 2 cards, broth with β-Alanyl p-nitroanilide; settings: Citrobacter koseri; 1 strain tested; read after 19 hours
β-alanine aminopeptidase [5] = experiment: Vitek 2 cards, broth with β-Alanyl p-nitroanilide; settings: Enterobacter aerogenes; 2 strains tested; read after 19 hours
β-alanine aminopeptidase [6] = experiment: Vitek 2 cards, broth with β-Alanyl p-nitroanilide; settings: Enterobacter cloacae; 2 strains tested; read after 19 hours
β-alanine aminopeptidase [7] = experiment: Vitek 2 cards, broth with β-Alanyl p-nitroanilide; settings: Enterobacter intermedius; 1 strain tested; read after 19 hours
β-alanine aminopeptidase [8] = experiment: Vitek 2 cards, broth with β-Alanyl p-nitroanilide; settings: Escherichia coli; 2 strains tested; read after 19 hours
β-alanine aminopeptidase [9] = experiment: Vitek 2 cards, broth with β-Alanyl p-nitroanilide; settings: Proteus mirabilis; 2 strains tested; read after 19 hours
β-alanine aminopeptidase [10] = experiment: Vitek 2 cards, broth with β-Alanyl p-nitroanilide; settings: Proteus vulgaris; 1 strain tested; read after 19 hours
β-alanine aminopeptidase [11] = experiment: Vitek 2 cards, broth with β-Alanyl p-nitroanilide; settings: Providencia stuartii; 1 strain tested; read after 19 hours
β-alanine aminopeptidase [12] = experiment: Vitek 2 cards, broth with β-Alanyl p-nitroanilide; settings: Salmonella arizonae; 1 strain tested; read after 19 hours
β-alanine aminopeptidase [13] = experiment: Vitek 2 cards, broth with β-Alanyl p-nitroanilide; settings: Serratia liquefaciens; 1 strain tested; read after 19 hours
β-alanine aminopeptidase [14] = experiment: Vitek 2 cards, broth with β-Alanyl p-nitroanilide; settings: Serratia marcescens; 1 strain tested; read after 19 hours
β-alanine aminopeptidase [15] = experiment: Vitek 2 cards, broth with β-Alanyl p-nitroanilide; settings: Klebsiella oxytoca; 2 strains tested; read after 19 hours
β-alanine aminopeptidase [16] = experiment: Vitek 2 cards, broth with β-Alanyl p-nitroanilide; settings: Klebsiella pneumoniae; 2 strains tested; read after 19 hours
β-alanine aminopeptidase [17] = experiment: Vitek 2 cards, broth with β-Alanyl p-nitroanilide; settings: Achromobacter xylosoxydans; 2 strains tested; read after 19 hours
β-alanine aminopeptidase [18] = experiment: Vitek 2 cards, broth with β-Alanyl p-nitroanilide; settings: Acinetobacter baumannii; 2 strains tested; read after 19 hours
β-alanine aminopeptidase [19] = experiment: Vitek 2 cards, broth with β-Alanyl p-nitroanilide; settings: Aeromonas hydrophila; 2 strains tested; read after 19 hours
β-alanine aminopeptidase [20] = experiment: Vitek 2 cards, broth with β-Alanyl p-nitroanilide; settings: Brevundimonas diminuta; 1 strain tested; read after 19 hours
β-alanine aminopeptidase [21] = experiment: Vitek 2 cards, broth with β-Alanyl p-nitroanilide; settings: Burkholderia vesicularis; 1 strain tested; read after 19 hours
β-alanine aminopeptidase [22] = experiment: Vitek 2 cards, broth with β-Alanyl p-nitroanilide; settings: Chryseobacterium meningosepticum; 1 strain tested; read after 19 hours
β-alanine aminopeptidase [23] = experiment: Vitek 2 cards, broth with β-Alanyl p-nitroanilide; settings: Moraxella non liquefaciens; 2 strains tested; read after 19 hours
β-alanine aminopeptidase [24] = experiment: Vitek 2 cards, broth with β-Alanyl p-nitroanilide; settings: Pseudomonas aeruginosa; 4 strains tested; read after 19 hours
β-alanine aminopeptidase [25] = experiment: Vitek 2 cards, broth with β-Alanyl p-nitroanilide; settings: Pseudomonas putida; 1 strain tested; read after 19 hours
β-alanine aminopeptidase [26] = experiment: Vitek 2 cards, broth with β-Alanyl p-nitroanilide; settings: Pseudomonas stutzeri; 3 strains tested; read after 19 hours
β-alanine aminopeptidase [27] = experiment: Vitek 2 cards, broth with β-Alanyl p-nitroanilide; settings: Ralstonia pickettii; 1 strain tested; read after 19 hours
β-alanine aminopeptidase [28] = experiment: Vitek 2 cards, broth with β-Alanyl p-nitroanilide; settings: Shewanella algae; 1 strain tested; read after 19 hours
β-alanine aminopeptidase [29] = experiment: Vitek 2 cards, broth with β-Alanyl p-nitroanilide; settings: Sphingomonas paucimobilis; 2 strains tested; read after 19 hours
β-alanine aminopeptidase [30] = experiment: Vitek 2 cards, broth with β-Alanyl p-nitroanilide; settings: Stenotrophomonas maltophilia; 2 strains tested; read after 19 hours
β-alanine aminopeptidase [31] = experiment: Vitek 2 cards, broth with β-Alanyl p-nitroanilide; settings: Vibrio vulnificus; 1 strain tested; read after 19 hours
β-alanine aminopeptidase [32] = type: cell-based; settings: Shigella boydii; 10 strains tested
β-alanine aminopeptidase [33] = type: cell-based; settings: Shigella flexneri; 10 strains tested
β-alanine aminopeptidase [34] = type: cell-based, Ochrobactrum anthropi
β-alanine aminopeptidase [35] = settings: Shigella dysenteriae; 10 strains tested
β-alanine aminopeptidase [36] = test system: β-alanine aminopeptidase
β-alanine aminopeptidase [37] = settings: Chryseobacterium indologenes; 10 strains tested
β-alanine aminopeptidase [38] = settings: Oligella urethralis; 10 strains tested
β-alanine aminopeptidase [39] = settings: 137 strains tested
β-alanine aminopeptidase [40] = test system: β-alanine aminopeptidase; remark: listed apart in the source
β-alanine aminopeptidase [41] = test system: β-alanine aminopeptidase; remark: listed apart in the source
β-alanine aminopeptidase [42] = settings: Pseudomonas stutzeri; 10 strains tested
β-alanine aminopeptidase [43] = settings: Comamonas testoteroni; 10 strains tested
β-alanine aminopeptidase [44] = experiment: Two-substrate semi-solid medium (Trypticase Soy agar), colony color; type: cell-based; settings: agar also contains 6-Chloro-3-indolyl-β-D-glycopyranoside and 3,5-Dihydroxy-2-naphthoic acid, 35-37° C., 18-24 hours
Description: The medium was poured out and inoculated as follows: • 10 dishes with pure cultures corresponding to five strains of Pseudomonas aeruginosa and five of Pseudomonas mendocina, and • 2 dishes with a mixture of two strains, one being of Pseudomonas aeruginosa and the other of Pseudomonas mendocina. The Petri dishes were incubated at 35-37° C. After 18-24 hours of incubation, the color of the colonies was recorded.

[45] = Ochrobactrum anthropi, 11 strains tested
[46] = Chromobacterium violaceum, 11 strains tested
[47] = Ralstonia pickettii, 10 strains tested
[48] = Pseudomonas mendocina, 10 strains tested

NCCC(=O)Nc1ccc([N+](=O)[O-])cc1 [β-Alanyl-p-nitroanilide, β-Alanine p-nitroanilide]
Number of negative results (β-alanine aminopeptidase [1]): 1 | Number positive results (β-alanine aminopeptidase [1]): 0 | Number of negative results (β-alanine aminopeptidase [2]): 2 | Number positive results (β-alanine aminopeptidase [2]): 0 | Number of negative results (β-alanine aminopeptidase [3]): 2 | Number positive results (β-alanine aminopeptidase [3]): 0 | Number of negative results (β-alanine aminopeptidase [4]): 1 | Number positive results (β-alanine aminopeptidase [4]): 0 | Number of negative results (β-alanine aminopeptidase [5]): 2 | Number positive results (β-alanine aminopeptidase [5]): 0 | Number of negative results (β-alanine aminopeptidase [6]): 2 | Number positive results (β-alanine aminopeptidase [6]): 0 | Number of negative results (β-alanine aminopeptidase [7]): 1 | Number positive results (β-alanine aminopeptidase [7]): 0 | Number of negative results (β-alanine aminopeptidase [8]): 2 | Number positive results (β-alanine aminopeptidase [8]): 0 | Number of negative results (β-alanine aminopeptidase [9]): 2 | Number positive results (β-alanine aminopeptidase [9]): 0 | Number of negative results (β-alanine aminopeptidase [10]): 1 | Number positive results (β-alanine aminopeptidase [10]): 0 | Number of negative results (β-alanine aminopeptidase [11]): 1 | Number positive results (β-alanine aminopeptidase [11]): 0 | Number of negative results (β-alanine aminopeptidase [12]): 1 | Number positive results (β-alanine aminopeptidase [12]): 0 | Number of negative results (β-alanine aminopeptidase [13]): 0 | Number positive results (β-alanine aminopeptidase [13]): 1 | Number of negative results (β-alanine aminopeptidase [14]): 0 | Number positive results (β-alanine aminopeptidase [14]): 1 | Number of negative results (β-alanine aminopeptidase [15]): 2 | Number positive results (β-alanine aminopeptidase [15]): 0 | Number of negative results (β-alanine aminopeptidase [16]): 2 | Number positive results (β-alanine aminopeptidase [16]): 0 | Number of negative results (β-alanine aminopeptidase [17]): 2 | Number positive results (β-alanine aminopeptidase [17]): 0 | Number of negative results (β-alanine aminopeptidase [18]): 2 | Number positive results (β-alanine aminopeptidase [18]): 0 | Number of negative results (β-alanine aminopeptidase [19]): 2 | Number positive results (β-alanine aminopeptidase [19]): 0 | Number of negative results (β-alanine aminopeptidase [20]): 1 | Number positive results (β-alanine aminopeptidase [20]): 0 | Number of negative results (β-alanine aminopeptidase [21]): 1 | Number positive results (β-alanine aminopeptidase [21]): 0 | Number of negative results (β-alanine aminopeptidase [22]): 1 | Number positive results (β-alanine aminopeptidase [22]): 0 | Number of negative results (β-alanine aminopeptidase [23]): 2 | Number positive results (β-alanine aminopeptidase [23]): 0 | Number of negative results (β-alanine aminopeptidase [24]): 0 | Number positive results (β-alanine aminopeptidase [24]): 4 | Number of negative results (β-alanine aminopeptidase [25]): 1 | Number positive results (β-alanine aminopeptidase [25]): 0 | Number of negative results (β-alanine aminopeptidase [26]): 3 | Number positive results (β-alanine aminopeptidase [26]): 0 | Number of negative results (β-alanine aminopeptidase [27]): 1 | Number positive results (β-alanine aminopeptidase [27]): 0 | Number of negative results (β-alanine aminopeptidase [28]): 1 | Number positive results (β-alanine aminopeptidase [28]): 0 | Number of negative results (β-alanine aminopeptidase [29]): 2 | Number positive results (β-alanine aminopeptidase [29]): 0 | Number of negative results (β-alanine aminopeptidase [30]): 2 | Number positive results (β-alanine aminopeptidase [30]): 0 | Number of negative results (β-alanine aminopeptidase [31]): 1 | Number positive results (β-alanine aminopeptidase [31]): 0

Cc1cc(=O)oc2cc(NC(=O)CCN)ccc12
Borderline results (β-alanine aminopeptidase [32]): 0 | Number of negative results (β-alanine aminopeptidase [32]): 10 | Number of positive results (β-alanine aminopeptidase [32]): 0 | Borderline results (β-alanine aminopeptidase [33]): 0 | Number of negative results (β-alanine aminopeptidase [33]): 10 | Number of positive results (β-alanine aminopeptidase [33]): 0 | percentage of positive results (β-alanine aminopeptidase [34]; Ochrobactrum anthropi strains): 100% | Borderline results (β-alanine aminopeptidase [34]; [45]): 0 | Number of negative results (β-alanine aminopeptidase [34]; [45]): 0 | Number of positive results (β-alanine aminopeptidase [34]; [45]): 11 | Borderline results (β-alanine aminopeptidase [35]): 0 | Number of negative results (β-alanine aminopeptidase [35]): 10 | Number of positive results (β-alanine aminopeptidase [35]): 0 | percentage of positive results (β-alanine aminopeptidase [36]; Chromobacterium violaceum strains): 10% | Borderline results (β-alanine aminopeptidase [36]; [46]): 1 | Number of negative results (β-alanine aminopeptidase [36]; [46]): 9 | Number of positive results (β-alanine aminopeptidase [36]; [46]): 1 | Borderline results (β-alanine aminopeptidase [37]): 0 | Number of negative results (β-alanine aminopeptidase [37]): 10 | Number of positive results (β-alanine aminopeptidase [37]): 0 | Borderline results (β-alanine aminopeptidase [38]): 0 | Number of negative results (β-alanine aminopeptidase [38]): 10 | Number of positive results (β-alanine aminopeptidase [38]): 0 | percentage of positive results (β-alanine aminopeptidase [39]; Pseudomonas aeruginosa strains): 97.8% | Borderline results (β-alanine aminopeptidase [39]; Pseudomonas aeruginosa): 1 | Number of negative results (β-alanine aminopeptidase [39]; Pseudomonas aeruginosa): 2 | Number of positive results (β-alanine aminopeptidase [39]; Pseudomonas aeruginosa): 134 | percentage of positive results (β-alanine aminopeptidase [40]; Ralstonia pickettii strains): 20% | Borderline results (β-alanine aminopeptidase [40]; [47]): 0 | Number of negative results (β-alanine aminopeptidase [40]; [47]): 8 | Number of positive results (β-alanine aminopeptidase [40]; [47]): 2 | percentage of positive results (β-alanine aminopeptidase [41]; Pseudomonas mendocina strains): 100% | Borderline results (β-alanine aminopeptidase [41]; [48]): 0 | Number of negative results (β-alanine aminopeptidase [41]; [48]): 0 | Number of positive results (β-alanine aminopeptidase [41]; [48]): 10 | Borderline results (β-alanine aminopeptidase [42]): 0 | Number of negative results (β-alanine aminopeptidase [42]): 10 | Number of positive results (β-alanine aminopeptidase [42]): 0 | Borderline results (β-alanine aminopeptidase [43]): 0 | Number of negative results (β-alanine aminopeptidase [43]): 10 | Number of positive results (β-alanine aminopeptidase [43]): 0

CNc1ccc(N(C)C(=O)CCN)cc1 [β-Alanyl-N,N′-dimethyl-p-phenylene-diamine]
color of the colonies (β-alanine aminopeptidase [44]; Pseudomonas aeruginosa): Blue colonies with a blue halo | color of the colonies (β-alanine aminopeptidase [44]; Pseudomonas mendocina): purple colonies with a blue halo
